Where two headings read alike, the source gives them in different places.
Experiments:
[1] = test system: genetically hypertensive (spontaneously hypertensive) rats of the Okamato strain; experiment: Spontaneously Hypertensive Rat Test (antihypertensive activity); type: in vivo; conditions: po, compounds dosed orally, five animals per test dose, read-out: MED (minimum effective dose), dose required to give a minimum of a 20 mm Hg drop in blood pressure from control
Description: Clin. Med. 78:957-962 (1971). Five animals were used for each test dose. Results of the test are expressed in the table below as the MED (minimum effective dose) or dose required to give a minimum of a 20 mm Hg drop in blood pressure from control. | *compounds dosed orally

[2] = test system: ventricular fibrillation by chloroform; experiment: Mouse Chloroform Test (antiarrhythmic activity); type: in vivo, female swiss albino mice; conditions: mice; for ED50: Mus musculus, read-out: ED50, dose required to protect 50% of the test animals against development of ventricular fibrillation by chloroform
Method: 160:22-30 (1968). The test compounds were administered orally (p.o.) or intraperitoneally (i.p.) to female swiss albino mice weighing 16-24 grams. The arrhythmia induced by the chloroform was monitored by electrocardiogram recording and the normal and abnormal heart beats were tabulated.

corneal reflex = experiment: Local Anesthetic Test (corneal reflex procedure); type: in vivo, rabbits; conditions: one drop into the conjunctival sac of one rabbit eye; isotonic saline
Method: In this test a corneal reflex was elicited in rabbits by lightly touching the cornea with a stiff hair or bristle which normally would cause the rabbit to blink. The assay was carried out using initially a 2% solution or suspension of the test compound in isotonic saline. A cup or pouch was formed of the lower eyelid by pulling down the lower lid, and one drop of the test compound was instilled into the conjunctival sac of one eye. The other eye serves as a control. The corneal reflex was tested every fifteen minutes until the reflex returned to normal. If the reflex could be elicited 3 out of 5 times, then there was considered to be no local anesthetic effect. If the reflex was blocked and the compound was determined to be a local anesthetic, lower concentrations were tested to determine the minimum concentration needed for local anesthetic activity. Results for several of the compounds of the present invention are expressed in the table below as the MEC (minimum effective concentration) or minimum concentration of compound required for local anesthetic activity.

| Compound | ED50 ([2]; ip) | ED50 ([2]; po) | MEC (minimum effective concentration), minimum concentration of compound required for local anesthetic activity (corneal reflex) | further results |
| --- | --- | --- | --- | --- |
| CC(=O)O[C@@H]1C[C@@]2(C)CC[C@@H]1C(C)(C)N2C (relative stereo) [Example 1, 5-endo-Acetoxy-1,2,3,3-tetramethyl-2-azabicyclo[2.2.2]-octane] | – | – | – | minimal effective dose [1]: 12.5 mg/kg |
| CN1C(C)(C)[C@H]2CC[C@]1(C)C[C@H]2OC(=O)C1CC1 (relative stereo) [Example 2A, 5-endo-Cyclopropylcarbonyloxy-1,2,3,3-tetramethyl-2-azabicyclo-[2.2.2]octane] | – | – | – | minimal effective dose [1]: 25 mg/kg |
| COc1cc(C(=O)O[C@@H]2C[C@@]3(C)CC[C@@H]2C(C)(C)N3C)cc(OC)c1OC (relative stereo) [Example 2C, 5-endo-(3,4,5-Trimethoxybenzoyl-oxy)-1,2,3,3-tetramethyl-2-azabicyclo[2.2.2]octane] | 50 mg/kg | – | – | – |
| CCCC(=O)O[C@@H]1C[C@@]2(C)CC[C@@H]1C(C)(C)N2C (relative stereo) [Example 2D, 5-endo-Butyryloxy-1,2,3,3-tetramethyl-2-azabicyclo[2.2.2]-octane] | – | 80 mg/kg | – | – |
| CN1C(C)(C)[C@H]2CC[C@]1(C)C[C@H]2OC(=O)c1ccc(N)cc1 (relative stereo) [Example 2F, 5-endo-(p-Aminobenzoyloxy)-1,2,3,3-tetramethyl-2-azabicyclo-[2.2.2]octane] | 6.3 mg/kg | 25 mg/kg | 2.0% | – |
| CN1C(C)(C)[C@H]2CC[C@]1(C)C[C@H]2OC(=O)C(c1ccccc1)c1ccccc1 (relative stereo) [Example 2G, 5-endo-(Diphenylacetoxy)-1,2,3,3-tetramethyl-2-azabicyclo[2.2.2]-octane] | 12.5 mg/kg | 20 mg/kg | 0.25% | – |
| CN1C(C)(C)[C@H]2CC[C@]1(C)C[C@H]2OCCCNC(=O)c1ccccc1 (relative stereo) [Example 3, 5-endo-(3-Benzoylaminopropyloxy)-1,2,3,3-tetramethyl-2-azabicyclo[2.2.2]octane] | – | 10 mg/kg | 0.5% | – |
| CN1C(C)(C)[C@H]2CC[C@]1(C)C[C@H]2OCCCNC(=O)C(c1ccccc1)c1ccccc1 (relative stereo) [Example 4, 5-endo-(3-Diphenylacetylaminopropyloxy)-1,2,3,3-tetramethyl-2-azabicyclo[2.2.2]octane] | – | 10 mg/kg | 0.5% | – |
| CN1C(C)(C)[C@H]2CC[C@]1(C)C[C@H]2OC(=O)Nc1ccccc1 (relative stereo) [Example 5, 5-endo-Phenylcarbamoyloxy-1,2,3,3-tetramethyl-2-azabicyclo[2.2.2]octane] | – | 44 mg/kg | – | – |
| CN1C2(C)CCC(C(OC(=O)c3ccccc3)C2)C1(C)C (stereo not drawn) [Example 2B, 5-endo-Benzoyloxy-1,2,3,3-tetramethyl-2-azabicyclo(2.2.2]-octane] | – | – | – | ED50, dose required to protect 50% of the test animals against development of ventricular fibrillation by chloroform ([2]; i.p.): 50 mg/kg |

From patent publication US4120857A, “Derivatives of 1,2,3,3-tetramethyl-2-azabicyclo[2.2.2]octan-5-endo-ol” (priority 1977, dated 1978)
